Consider 27 compounds from patent US11497740B2, “Use of Jumonji C demethylase inhibitors for the treatment and prevention of chemotherapy resistance and radioresistance in cancer” (THE BOARD OF REGENTS OF THE UNIVERSITY OF TEXAS SYSTEM, priority 2016, dated 2022).

Common to all, as to type: cell-based, human
The test system of one assay is H1299 T18. As to the kind of experiment: MTS cell viability assay, H1299 T18 resistant variant vs H1299 Parental. Conditions: for loss of cell viability: H1299 T18 and H1299 Parental; for H1299 T18 SR (Selectivity Ratio): SR = [IC50 of Parental]/[IC50 of Resistant], H1299 T18 vs H1299 Parental; for cross-resistance of paclitaxel+carboplatin resistant variants: resistant variants (FIGS. 2D, 9). How it is done:
(§1) NSCLC lines were treated with paclitaxel+carboplatin combination, given in a ˜2:3 wt/wt ratio, to mirror the clinical dosage values of ˜225 mg/m2 and ˜330 mg/m2, paclitaxel and carboplatin respectively. Note that considering the molecular weights of the two drugs, this translates to approximately a 1 to 3.4 molar ratio. Drugs were given in cycles, following a drug on/drug off treatment scheme. Each cycle consisted of 4-5 days of drug treatment and drug-free culturing for about 1-2 weeks or more to allow the surviving cells to repopulate the plate. […] Untreated parental cells were simultaneously maintained at all times for comparison. Cell viability was assessed in 96-well plates using standard MTS assays (Promega). Treatment duration in MTS assays was 4 days. Drugs were tested in two- or four-fold serial dilutions, totaling 8 different drug concentrations, with 8 replicates per concentration. Response was validated in multiple replicate plates (n≥3).
(§2) Cell viability was assessed by standard MTS assays using Promega's CellTiter reagents. Eight drug concentrations given as two- or four-fold dilutions were tested for each chemotherapeutic agent. In addition, each experiment contained eight replicates per concentration and the entire assay was performed in multiple replicates (n≥3).
A general note: Formazan colour is commonly taken as a measure of viable cells.

The test system of a further assay is HCC4017 T5. As to the kind of experiment: MTS cell viability assay, HCC4017 T5 resistant variant vs parental. Conditions: HCC4017 T5 and parental. How it is done:
as §1, §2

The next assay has as its system H1355 T16. As to the kind of experiment: MTS cell viability assay, H1355 T16 resistant variant vs H1355 Parental. Conditions: for loss of cell viability: H1355 T16 and H1355 Parental; for H1355 T16 SR (Selectivity Ratio): SR = [IC50 of Parental]/[IC50 of Resistant], H1355 T16 vs H1355 Parental; for cross-resistance of paclitaxel+carboplatin resistant variant: H1355 T16. How it is done:
as §1, §2

The next assay concerns H1693 T8. As to the kind of experiment: MTS cell viability assay, H1693 T8 resistant variant vs parental. Conditions: H1693 T8 and parental. As to the method: as §1, §2

For `Clc1ccc(N/N=C(/c2ccccc2)c2ccccn2)nc1` (single isomer, unassigned) [Z isomer (Inactive)], the “loss of cell viability” value in the assay with H1299 T18 is “no viability loss”; in the assay with HCC4017 T5 it was “No loss in cell viability”; with H1355 T16, “no loss of cell viability”; in the assay with H1693 T8, “No loss in cell viability”. Besides, the “H1299 T18 SR (Selectivity Ratio)” value in the assay with H1299 T18 amounted to 1.1. Moreover, the “H1355 T16 SR (Selectivity Ratio)” value in the assay on H1355 T16 was found to be 1.0.
On to `NC1CC1c1ccccc1` (stereo not drawn) [2-PCPA], for which the “H1299 T18 SR (Selectivity Ratio)” value in the assay on H1299 T18 worked out at 1.3. Also, the “H1355 T16 SR (Selectivity Ratio)” value with H1355 T16 is listed as 1.8.
For `Nc1ncn([C@@H]2O[C@H](CO)[C@@H](O)[C@H]2O)c(=O)n1` [5-azacytidine], in that order: 0.2 and 2.6.
For `COc1cc2nc(N3CCCN(C)CC3)nc(NC3CCN(Cc4ccccc4)CC3)c2cc1OC` [BIX 01294], in that order: 0.9 and 1.9.
For `N.N.O=C([O-])C1(C(=O)[O-])CCC1.[Pt+2]` [Carboplatin], in that order: 0.8 and 1.2.
As to `Nc1nccc2c1ncn2C1C=C(CO)C(O)C1O` (stereo not drawn) [DZNep], in the assay on H1299 T18, the “H1299 T18 SR (Selectivity Ratio)” value was found to be 0.5. Also, the “H1355 T16 SR (Selectivity Ratio)” value in the assay on H1355 T16 is listed as 1.7.
Turning to `C/C=C1\NC(=O)[C@H]2CSSCC/C=C/[C@H](CC(=O)N[C@H](C(C)C)C(=O)N2)OC(=O)[C@H](C(C)C)NC1=O` [Depsipeptide], in the assay with H1299 T18, the “H1299 T18 SR (Selectivity Ratio)” value is on record as 0.05 and the “cross-resistance of paclitaxel+carboplatin resistant variants” value is on record as “cross-resistant”. Moreover, in the assay with H1355 T16, the “cross-resistance of paclitaxel+carboplatin resistant variant” value is on record as “cross-resistant” and the “H1355 T16 SR (Selectivity Ratio)” value is listed as 0.03.
For the compound `CC(=O)O[C@@]12CO[C@@H]1C[C@H](O)[C@@]1(C)C(=O)[C@H](O)C3=C(C)[C@@H](OC(=O)[C@H](O)[C@@H](NC(=O)OC(C)(C)C)c4ccccc4)C[C@@](O)([C@@H](OC(=O)c4ccccc4)[C@H]21)C3(C)C` [Docetaxel], in the assay on H1299 T18, the “H1299 T18 SR (Selectivity Ratio)” value is listed as 0.03 and the “cross-resistance of paclitaxel+carboplatin resistant variants” value was “cross-resistant”. For the same compound, in the assay with H1355 T16, the “cross-resistance of paclitaxel+carboplatin resistant variant” value was “cross-resistant” and the “H1355 T16 SR (Selectivity Ratio)” value was determined as 0.002.
On to `COc1cccc2c1C(=O)c1c(O)c3c(c(O)c1C2=O)C[C@@](O)(C(=O)CO)C[C@@H]3O[C@H]1C[C@H](N)[C@H](O)[C@H](C)O1` [Doxorubicin], for which, in the assay with H1299 T18, the “H1299 T18 SR (Selectivity Ratio)” value turned out to be 0.04 and the “cross-resistance of paclitaxel+carboplatin resistant variants” value was “cross-resistant”. Moreover, in the assay on H1355 T16, the “cross-resistance of paclitaxel+carboplatin resistant variant” value was “cross-resistant” and the “H1355 T16 SR (Selectivity Ratio)” value was 0.25.
In the case of `O=C(/C=C/c1cccnc1)NCCCCC1CCN(C(=O)c2ccccc2)CC1` [FK866], in the assay with H1299 T18, the “H1299 T18 SR (Selectivity Ratio)” value stood at 0.1. The “H1355 T16 SR (Selectivity Ratio)” value in the assay with H1355 T16 is given as 2.1.
On to `CC[C@H](C)n1cc(C)c2c(C(=O)NCc3c(C)cc(C)[nH]c3=O)cc(-c3ccc(N4CCNCC4)nc3)cc21` [GSK 126], for which the “H1299 T18 SR (Selectivity Ratio)” value in the assay on H1299 T18 is listed as 1.0. In the assay on H1355 T16, the “H1355 T16 SR (Selectivity Ratio)” value worked out at 0.8.
Turning to `CCOC(=O)CCNc1cc(N2CCc3ccccc3CC2)nc(-c2cccnc2)n1` [GSK-J5], the “loss of cell viability” value in the assay on H1299 T18 is recorded as “no effect on cell viability”; in the assay with H1355 T16 it was “no loss of cell viability”.
As for `CCc1c2c(nc3ccc(OC(=O)N4CCC(N5CCCCC5)CC4)cc13)-c1cc3c(c(=O)n1C2)COC(=O)[C@]3(O)CC` [Irinotecan], the “H1299 T18 SR (Selectivity Ratio)” value with H1299 T18 was determined as 1.1. For the same compound, the “H1355 T16 SR (Selectivity Ratio)” value with H1355 T16 is given as 2.7.
For `Cc1sc2c(c1C)C(c1ccc(Cl)cc1)=N[C@@H](CC(=O)OC(C)(C)C)c1nnc(C)n1-2` [JQ1], in that order: 0.6 and 6.6.
For `CN(C)c1ccc(C(=O)NCCCCCCC(=O)NO)cc1` [M344], in that order: 1.1 and 1.8.
The corresponding values for `NC1(c2ccc(-c3nc4ccn5c(=O)[nH]nc5c4cc3-c3ccccc3)cc2)CCC1` [MK-2206] are 0.7 and 1.8.
`c1cc(SSc2ccns2)sn1` [NU 9056]: the “H1299 T18 SR (Selectivity Ratio)” value in the assay with H1299 T18 is listed as 2.0. Also, the “H1355 T16 SR (Selectivity Ratio)” value with H1355 T16 stood at 1.0.
The corresponding values for `O=C(/C=C/N1C[C@H]2C[C@@H]1CN2c1ccccn1)c1ccccc1O` [PFI 3] are 1.1 and 2.5.
The corresponding values for `O=C1C(=Cc2cccnc2)C(=O)c2ccccc21` [PRT 4165] are 1.0 and 1.4.
For the compound `CC(=O)O[C@H]1C(=O)[C@@]2(C)[C@H]([C@H](OC(=O)c3ccccc3)[C@]3(O)C[C@H](OC(=O)[C@H](O)[C@@H](NC(=O)c4ccccc4)c4ccccc4)C(C)=C1C3(C)C)[C@]1(OC(C)=O)CO[C@@H]1C[C@@H]2O` [Paclitaxel], in the assay with H1299 T18, the “H1299 T18 SR (Selectivity Ratio)” value was found to be 0.03. Moreover, the “H1355 T16 SR (Selectivity Ratio)” value in the assay with H1355 T16 was determined as 0.02.
For `COc1ccc(CCc2nc3cc(-c4c(C)noc4C)ccc3n2C[C@H](C)N2CCOCC2)cc1Cl` [SGC-CBP30], in that order: 1.3 and 0.9.
In the case of `O=C(CCCCCN1C(=O)c2cccc3cccc(c23)C1=O)NO` [Scriptaid], in the assay with H1299 T18, the “H1299 T18 SR (Selectivity Ratio)” value is on record as 1.5. For the same compound, the “H1355 T16 SR (Selectivity Ratio)” value with H1355 T16 turned out to be 1.4.
The corresponding values for `CC/C(=C(\c1ccccc1)c1ccc(OCCN(C)C)cc1)c1ccccc1` [Tamoxifen] are 1.0 and 1.0.
In the case of `CC(/C=C/C(=O)NO)=C\[C@@H](C)C(=O)c1ccc(N(C)C)cc1` [Trichostatin A], the “H1299 T18 SR (Selectivity Ratio)” value in the assay with H1299 T18 was 1.8. The “H1355 T16 SR (Selectivity Ratio)” value in the assay on H1355 T16 is on record as 2.6.
The corresponding values for `CCCC(CCC)C(=O)O` [Valproic acid] are 1.4 and 1.3.
For the compound `CCC1=C[C@@H]2CN(C1)Cc1c([nH]c3ccccc13)[C@@](C(=O)OC)(c1cc3c(cc1OC)N(C)[C@H]1[C@@](O)(C(=O)OC)[C@H](OC(C)=O)[C@]4(CC)C=CCN5CC[C@]31[C@@H]54)C2` [Vinorelbine], in the assay with H1299 T18, the “H1299 T18 SR (Selectivity Ratio)” value was determined as 0.03 and the “cross-resistance of paclitaxel+carboplatin resistant variants” value was “cross-resistant”. In the assay on H1355 T16, the “cross-resistance of paclitaxel+carboplatin resistant variant” value is reported as “cross-resistant” and the “H1355 T16 SR (Selectivity Ratio)” value worked out at 0.002.
`Oc1nc(-c2ccc(C(F)(F)F)cc2)nc2c1CSCC2` [XAV939]: the “H1299 T18 SR (Selectivity Ratio)” value with H1299 T18 was 2.7. In the assay with H1355 T16, the “H1355 T16 SR (Selectivity Ratio)” value was determined as 1.0.
